According to PMC10641529, “Selective targeting and clustering of phosphatidylserine lipids by RSV M protein is critical for virus particle production” (The Journal of Biological Chemistry, 2023):

Tests used:
RSV M protein = biological target: T1, RSV M protein (Human respiratory syncytial virus A2, UniProt P0DOE7); assay: LUV cosedimentation, SDS-PAGE densitometry; format: binding; settings: PC:PS (70:30) LUVs; accessible PS 50 μM to 1.5 mM; 8 μM M; 150 mM NaCl, 10 mM Tris-HCl, pH 7.4, 25 °C; acyl chains of PS not told; read-out: Kd,app
T1 construct: full-length M, recombinant from E. coli Rosetta 2 (pCDF-M); His6 tag cut with 3C protease; dimer
T1 sequence (P0DOE7 whole entry): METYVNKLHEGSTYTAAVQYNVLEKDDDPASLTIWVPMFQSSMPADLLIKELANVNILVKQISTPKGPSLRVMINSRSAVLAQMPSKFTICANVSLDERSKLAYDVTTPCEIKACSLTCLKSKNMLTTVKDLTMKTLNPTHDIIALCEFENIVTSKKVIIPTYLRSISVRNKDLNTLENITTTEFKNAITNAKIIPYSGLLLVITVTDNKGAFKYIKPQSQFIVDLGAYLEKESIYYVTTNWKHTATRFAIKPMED

[1] = biological target: His6-GCN4-FCT (Histidine tag and GCN4 leucine zipper domain fused to the cytoplasmic tail of the RSV fusion (F) glycoprotein) (not stated | human respiratory syncytial virus); assay: SDS-PAGE with Western blotting; purified His-GCN4-FCT on SDS-PAGE, detected with an anti-His antibody

Substance | Kd (RSV M protein) [µM] | stoichiometry N [1]
phosphatidylserine [PS] | 15 to 57 | –
His6-GCN4-FCT (Histidine tag and GCN4 leucine zipper domain fused to the cytoplasmic tail of the RSV fusion (F) glycoprotein) | – | 3
